According to patent US10624893B2 (priority 2016, dated 2020):
≈ marks a conversion by molar mass, not a printed value. Read-outs that look alike come from different tables or passages of the source.

System: M. tuberculosis drug resistant strains
Test: microbe, parasite or virus in culture
Type: cell-based
Settings: Mycobacterium tuberculosis, cholesterol medium

## Cc1cccc(OC2CCN(Cc3cc(=O)[nH]c(=O)[nH]3)CC2)c1C [Test Compound, 6-((4-(2,3-dimethylphenoxy)piperidin-1-yl)methyl)pyrimidine-2,4(1H,3H)-dione]
ERDMAN, strain Erdman, DS, read-out: MIC 1
  MIC: 0.78 µM (≈ 0.257 µg/mL)
ERDMAN, strain Erdman, DS, read-out: MIC 2
  MIC: 0.6 µM (≈ 0.198 µg/mL)
H37RV, strain H37Rv, DS, read-out: MIC 2
  MIC: 0.39 µM (≈ 0.128 µg/mL)
[…], read-out: MIC 2
  MIC: 0.6 µM (≈ 0.198 µg/mL)
Strain CDC1551, DS, read-out: MIC 1
  MIC: 0.78 µM (≈ 0.257 µg/mL)
Strain CDC1551, DS, read-out: MIC 2
  MIC: 0.39 µM (≈ 0.128 µg/mL)
Strain HN878, DS, read-out: MIC 1
  MIC: 0.78 µM (≈ 0.257 µg/mL)
Strain HN878, DS, read-out: MIC 2
  MIC: 0.6 µM (≈ 0.198 µg/mL)
Strain K03b00DS, DS, read-out: MIC 1
  MIC: 0.3 µM (≈ 0.0988 µg/mL)
Strain K03b00DS, DS, read-out: MIC 2
  MIC: 0.2 µM (≈ 0.0659 µg/mL)
Strain K04b00DS, DS, read-out: MIC 1
  MIC: 0.39 µM (≈ 0.128 µg/mL)
Strain K07b00DS, DS, read-out: MIC 1
  MIC: 0.6 µM (≈ 0.198 µg/mL)
Strain K07b00DS, DS, read-out: MIC 2
  MIC: 0.39 µM (≈ 0.128 µg/mL)
Strain K08b00DS, DS, read-out: MIC 1
  MIC: 0.6 µM (≈ 0.198 µg/mL)
Strain K08b00DS, DS, read-out: MIC 2
  MIC: 0.39 µM (≈ 0.128 µg/mL)
Strain K11b00DS, DS, read-out: MIC 2
  MIC: 0.78 µM (≈ 0.257 µg/mL)
Strain K12b00DS, DS, read-out: MIC 1
  MIC: 0.2 µM (≈ 0.0659 µg/mL)
Strain K12b00DS, DS, read-out: MIC 2
  MIC: 0.6 µM (≈ 0.198 µg/mL)
Strain K13b00DS, DS, read-out: MIC 1
  MIC: 0.78 µM (≈ 0.257 µg/mL)
Strain K13b00DS, DS, read-out: MIC 2
  MIC: 0.6 µM (≈ 0.198 µg/mL)
Strain K14b00DS, DS, read-out: MIC 2
  MIC: 0.6 µM (≈ 0.198 µg/mL)
Strain K16b00DS, DS, read-out: MIC 1
  MIC: 0.39 µM (≈ 0.128 µg/mL)
Strain K16b00DS, DS, read-out: MIC 2
  MIC: 0.2 µM (≈ 0.0659 µg/mL)
Strain K35b00DS, DS, read-out: MIC 1
  MIC: 0.6 µM (≈ 0.198 µg/mL)
Strain K35b00DS, DS, read-out: MIC 2
  MIC: 0.39 µM (≈ 0.128 µg/mL)
Strain NIH_G1DS, DS, read-out: MIC 1
  MIC: 0.78 µM (≈ 0.257 µg/mL)
Strain NIH_G1DS, DS, read-out: MIC 2
  MIC: 0.39 µM (≈ 0.128 µg/mL)
Strain NIH_G12, read-out: MIC 1
  MIC: 0.78 µM (≈ 0.257 µg/mL)
Strain NIH_G13, read-out: MIC 1
  MIC: 0.6 µM (≈ 0.198 µg/mL)
